Among the data in PubChem BioAssay (NCI) are TGI values, retold here.

Holding throughout (test): DTP human tumour cell line panel, 48 h
Experiment [1] concerns K-562 leukemia.
In experiment [2] the test system is UACC-257 melanoma.
Experiment [3] deals with A549 NSCLC.
The test system of experiment [4] is OVCAR-5 ovarian.
Experiment [5] relates to RPMI-8226 leukemia.
Experiment [6] relates to NCI-H23 lung.
For experiment [7], the system named is SW-620 colon.
Experiment [8] deals with SNB-75 CNS.
Experiment [9] deals with HOP-62 NSCLC.
In experiment [10] the test system is NCI/ADR-RES ovarian.

SMILES strings stand for the structures.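 A five-concentration, 48-hour dose response in 96-well plates underlies each endpoint, interpolated linearly between surrounding concentrations. TGI marks complete inhibition of growth.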

As usually defined, the TGI is the concentration at which net growth stops. High values mean less potent growth arrest, low ones more potent growth arrest. Regarding `Cc1ccccc1NC(=O)/C(=N\NC(N)=S)C(C#N)c1ccccc1` (stereo not given), the concentration for total growth inhibition (TGI) in experiment [1], in [2], in [3], in [4], in experiment [5] and in [6] was > 100 µM in each case. Also, the TGI in [7], in experiment [8] and in experiment [9] was > 100 µM in each case.
For `COC(=O)c1c(O)ccc(O)c1C(C(C)=O)C(C)=O`, the TGI in [1], in [2], in [3], in [5], in [6] and in [7] was > 100 µM each time. In addition, the TGI in experiment [8] and in [9] was > 100 µM throughout.
Regarding `CN(c1ccccc1)c1cc2ccccc2nn1`, the TGI in experiment [1], in experiment [2], in [3], in experiment [4], in experiment [5] and in [6] was > 100 µM throughout. The TGI in experiment [7], in experiment [8] and in experiment [9] was > 100 µM in each case.
`O=C(NC1CC1)c1c(O)[nH]c(=S)[nH]c1=O`: the TGI in experiment [1], in [2], in experiment [3], in experiment [4], in experiment [5] and in experiment [6] was > 100 µM throughout. Further, the TGI in experiment [7], in [8] and in experiment [9] was > 100 µM throughout.
`O=C(O)c1ccc2c(c1)C(=O)N(c1ccc(S(=O)(=O)c3ccc(N4C(=O)c5ccc(C(=O)O)cc5C4=O)cc3)cc1)C2=O`: the TGI in [1], in [2], in [3], in [4], in experiment [5] and in experiment [6] was > 100 µM throughout. Further, the TGI in [7], in experiment [8] and in experiment [9] was > 100 µM each time.
In the case of `CC1(C)c2ccccc2N2C(c3ccccc3)=NOC21C` (stereo not given), the TGI in [1], in [2], in experiment [3], in [4], in experiment [5] and in experiment [6] was > 100 µM in each case. Further, the TGI in experiment [7], in experiment [8] and in experiment [9] was > 100 µM in each case.
As to `C[P+]1(Cc2ccccc2)CCCC1`, the TGI in [1], in experiment [2], in experiment [3], in experiment [4], in experiment [5] and in [6] was > 100 µM in each case. Besides, the TGI in experiment [7], in experiment [8] and in [9] was > 100 µM in each case.
With `CC(=Nc1ccc(N(C)C)cc1)c1ccccc1`, the TGI in [1] is 74.7 µM; in experiment [3] it was 81.9 µM; in experiment [4] it was > 100 µM; in experiment [10], 68.4 µM; in experiment [6] it was > 100 µM; in [7], 39.7 µM. The figures for the TGI in experiment [8] and in experiment [9] were 77.4 µM and > 100 µM, respectively.
For `CC1OC(n2cc(C(F)(F)F)c(=O)[nH]c2=O)C=CC1=O` (stereo not given), the concentration for total growth inhibition (TGI) in [1] was > 100 µM; in [2] it was 38.8 µM; in experiment [3], > 100 µM; in experiment [4], 33.5 µM; in experiment [5], 37.4 µM; in [6], 33 µM. Further, the TGI in experiment [7] was 35.9 µM; in experiment [8], 32.8 µM; in [9], 52.3 µM.
Take `CCOC(=O)C1=C(C)NC(=O)NC1c1ccc(OC)cc1OC` (stereo not given): the TGI in experiment [1], in experiment [2], in experiment [3], in experiment [4], in [5] and in experiment [6] was > 100 µM each time. For the same compound, the total growth inhibition concentration (TGI) in experiment [7], in experiment [8] and in experiment [9] was > 100 µM throughout.
As for `CC(=O)OCC1OC(n2cccnc2=O)C(OC(C)=O)C1OC(C)=O` (stereo not given), the TGI in experiment [1], in experiment [2], in [3], in experiment [4], in experiment [5] and in experiment [7] was > 100 µM throughout. In addition, the TGI in experiment [8] and in [9] was > 100 µM in each case.
Turning to `CN(C)NC1=C([N+](=O)[O-])C=NN(c2ccccc2)C1`, the TGI in [1] worked out at 6.15 µM; in experiment [2] it was 3.57 µM; in [3], 3.87 µM; in [4], 3.04 µM; in [6], 3.42 µM; in experiment [7] it was 3.67 µM. Besides, the TGI came to 3.34 µM in [8] and 4.33 µM in experiment [9].
For the compound `N#C/C(=C\c1c(O)cc(O)cc1O)C(N)=O`, the TGI in [1], in [2], in [3], in experiment [4], in [5] and in [6] was > 100 µM throughout. Moreover, the TGI in experiment [7], in experiment [8] and in experiment [9] was > 100 µM in each case.
Turning to `Cc1cccc(C)c1NC(=O)CCC(=O)NC(N)=NC#N`, the concentration for total growth inhibition (TGI) in [1], in experiment [2], in experiment [3], in experiment [4], in [5] and in [6] was > 100 µM each time. In addition, the TGI in experiment [7], in [8] and in [9] was > 100 µM each time.
For `Cn1[nH]cc2ccc3nc4ccccc4c(=O)c3c21`, the TGI in experiment [1] is > 100 µM; in experiment [2], > 74 µM; in experiment [3] it was > 66 µM; in experiment [4], 92.8 µM; in experiment [5] it was 67.6 µM; in experiment [6], 53.4 µM. For the same compound, the figures for the TGI in [7], in experiment [8] and in experiment [9] were > 100 µM, 94.5 µM and > 83.9 µM, respectively.
Consider `CC1(C)C(=O)OC(n2cc(F)c(=O)[nH]c2=O)C1=O` (stereo not given), for which the TGI in [1], in experiment [2], in experiment [3], in experiment [4], in [5] and in [6] was > 100 µM each time. Besides, the TGI in experiment [7], in [8] and in experiment [9] was > 100 µM throughout.
